Read-outs that look alike come from different tables or passages of the source.
Key:
AMPA/kainate receptors = test: Inhibition of synaptic field potentials (population spikes) in rat hippocampal slices; format: cell-based; details: population spikes in CA1, after 30 min. perfusion
Procedure: Synaptic potentials in the CA1 area of hippocampus evoked by stimulation of the Schaffer collaterals are mediated by AMPA/kainate receptors. […] Lett. 92, 64 (1988)].
The inhibition of population spikes in CA1 was studied in rat hippocampal slices after 30 min. perfusion application of the test compounds.

AMPA receptors = test: Inhibition of synaptic field potentials in rat neocortex slices; format: cell-based
From the text: Similarly as in hippocampal CA1 area, glutamate is the main excitatory transmitter in the neocortex, and dominantly AMPA receptors are involved in mediation of synaptic responses evoked by stimulation of the white matter and recorded from the area adjacent to the site of stimulation [J. Neurophysiol. 64, 1282 (1990)]. The inhibitory effect on such field potentials was studied in rat neocortex slices, maintained in Vitro, according to Fletcher et al. [Br. J. Pharmacol. 95, 585 (1988)].

AMPA receptor = test: Inhibition of quisqualate induced DC potentials in rat neocortex slices; format: cell-based
Procedure: The AMPA antagonist effect was tested in rat neocortex slices by using a method similar to that of Harrison and Simmonds [Br. J. Pharmacol. 84, 381 (1985)].

NMDA [1] = test: NMDA induced responses (DC potentials) in rat neocortex slices; format: cell-based
[2] = AMPA induced spreading depression in isolated chicken retina; format: cell-based; details: AMPA (5 μM)
Procedure: (§1) Anti-kainate and -AMPA effects were investigated in the in vitro retinal spreading depression model [Brain Res. 607, 189 (1993)]. AMPA/kainate antagonists prolong the latency of the development of spreading depression evoked. by kainate (5 μM), or AMPA (5 μM). In some cases the effect on spreading depression evoked by 100 μM NMDA was also studied to clarify the selectivity.

[3] = Kainate induced spreading depression in isolated chicken retina; format: cell-based; details: kainate (5 μM)
Procedure: as §1

NMDA [4] = test: NMDA evoked spreading depression in isolated chicken retina; format: cell-based; details: spreading depression evoked by 100 μM NMDA
Procedure: as §1

male CFLP mice [5] = test: Anticonvulsive effect in mice, electroshock test; format: in vivo; details: Mus musculus, po, read-out: ED50 p.o., ES (electroshock)
Procedure: (§2) The anticonvulsive effect of the compounds of the formula (I) was measured by using the electroshock test [J. Pharmacol. Exp. Ther. 106, 319 (1952)], furthermore by using various chemical agents such as pentetrazole [J. Pharmacol. Exp. Ther. 108, 168 (1953)], strychnine [J. Pharmacol. Exp. Ther. 129, 75 (1960)], bemegride, nicotine and 4-aminopyridine. The test compounds were orally administered in 3 doses, to 10 male CFLP mice per dose.

male CFLP mice [6] = test: Anticonvulsive effect in mice, pentetrazole; format: in vivo; details: Mus musculus, po, read-out: ED50 p.o., Pentetrazole
Procedure: as §2

male CFLP mice [7] = test: Anticonvulsive effect in mice, strychnine; format: in vivo; details: Mus musculus, po, read-out: ED50 p.o., Strychnine
Procedure: as §2

male CFLP mice [8] = test: Anticonvulsive effect in mice, bemegride; format: in vivo; details: Mus musculus, po, read-out: ED50 p.o., Bemegride
Procedure: as §2

male CFLP mice [9] = test: Anticonvulsive effect in mice, nicotine; format: in vivo; details: Mus musculus, po
Procedure: as §2

male CFLP mice [10] = test: Anticonvulsive effect in mice, 4-aminopyridine; format: in vivo; details: Mus musculus, po, read-out: ED50 p.o., 4-AP (4-aminopyridine)
Procedure: as §2

CFLP mice = test: Inclined screen test in mice; format: in vivo; details: Mus musculus, ip, read-out: ED50 i.p., inclined screen test
From the text: In Randall's inclined screen test [J. Pharmacol. Exp. Ther. 129, 163 (1960)] the compounds were applied in 3 i.p. doses to 10 CFLP mice per dose.

mice = test: Rotarod test in mice; format: in vivo; details: Mus musculus, ip, read-out: ED50 i.p., rotarod test
From the text: The rotarod test was used to measure muscular tone and motor co-ordination [J. Am. Pharm. Assoc. 46, 208 (1957)].

cats [11] = test: Effect on spinal (polysynaptic) flexor reflexes in chloralose anaesthetized cats; format: in vivo; details: Felis catus, iv
From the text: Res. Comm. 20, S1, 141 (1988)].

cats [12] = test: Effects on spinal root reflex potentials in spinalized and immobilized cats; format: in vivo; details: Felis catus, iv
Procedure: The effect of compound of Example 15(16) on the spinal root potentials in cats was tested in spinalized and immobilized animals [Neuropharmacology 21, 161 (1989)].

[13] = system: [^3 H]-AMPA specific binding sites in CNS membrane preparations; details: Neuroreport 5, 93 (1993); cited from earlier work
[14] = system: [^3 H]-kainate specific binding sites in CNS membrane preparations; details: Neuroreport 5, 93 (1993); cited from earlier work
Acute toxicity in mice = details: mouse, in vivo
Procedure: The cause of mortality was respiratory insufficiency developing within 1 to 2 hours after i.p. administration and within 10 to 20 hours after oral application.

[15] = * <20% inhibition at the highest dose applied, read-out: ED50, DRP (dorsal root potential)
[16] = * <20% inhibition at the highest dose applied, read-out: ED50, DRR (dorsal root reflex)
[17] = read-out: ED50, MSR (monosynaptic ventral root reflex)
[18] = read-out: ED50, PSR (polysynaptic ventral root reflex)

SMILES: CC1=NN=C(c2ccc(N)cc2)c2cc3c(cc2C1)OCO3 [GYKI 52466, 1-(4-aminophenyl)-4-methyl-7,8-methylenedioxy-5H-2,3-benzodiazepine, reference compound]
- IC50 (AMPA/kainate receptors): 31.7 µM
- IC50 (AMPA receptors): 30 µM
- Inhibition of induced field potentials in % of control (AMPA receptors; concentration 10 μM): 22%
- Inhibition of induced field potentials in % of control (AMPA receptors; concentration 20 μM): 39%
- Inhibition of induced field potentials in % of control (AMPA receptors; concentration 40 μM): 62%
- Inhibition of induced field potentials in % of control (AMPA receptors; concentration 80 μM): 73%
- Inhibition of DC-potential changes induced by perfusion of quisqualate (AMPA receptor; concentration range of 10-50 μM): dose-dependently inhibited
- Effect on the responses induced by NMDA (NMDA [1]): failed to affect
- IC50 [2]: 6.3 µM
- IC50 [3]: 9.5 µM
- NMDA antagonist effect, times weaker than AMPA antagonist effect (NMDA [4]): ≥ 10 times
- ED50 (male CFLP mice [5]): 38 mg/kg
- ED50 (male CFLP mice [6]): 115 mg/kg
- ED50 (male CFLP mice [7]): 87 mg/kg
- ED50 (male CFLP mice [8]): 73 mg/kg
- ED50 (male CFLP mice [9]): 70 mg/kg
- ED50 (male CFLP mice [10]): 43 mg/kg
- ED50 (CFLP mice): 47 mg/kg
- ED50 (mice): 24 mg/kg
- ED50 (cats [11]): 0.9 mg/kg
- ED50 (cats [12]; [15]): > 4 mg/kg
- ED50 (cats [12]; [16]): > 4 mg/kg
- ED50 (cats [12]; [17]): 2.2 mg/kg
- ED50 (cats [12]; [18]): 2.3 mg/kg
- Displacement of [3H]-AMPA from specific binding sites [13]: displace neither
- Displacement of [3H]-kainate from specific binding sites [14]: displace neither

SMILES: CC(=O)N1N=C(c2ccc(N)cc2)c2cc3c(cc2CC1C)OCO3 (stereo not drawn) [Example 15 (16), 1-(4-Aminophenyl)-3-acetyl-4-methyl-7,8-methylenedioxy-3,4-dihydro-5H-2,3-benzodiazepine]
- IC50 (AMPA/kainate receptors): 24.8 µM
- IC50 (AMPA receptors): 21.5 µM
- Inhibition of induced field potentials in % of control (AMPA receptors; concentration 10 μM): 30%
- Inhibition of induced field potentials in % of control (AMPA receptors; concentration 20 μM): 47%
- Inhibition of induced field potentials in % of control (AMPA receptors; concentration 40 μM): 69%
- Inhibition of induced field potentials in % of control (AMPA receptors; concentration 80 μM): 82%
- Activity relative to the reference compound GYKI 52466 in inhibiting the response to quisqualate (AMPA receptor; 2-minute perfusion with 10 μM of quisqualate, corresponding concentrations): twice as active
- Effect on the responses induced by NMDA (NMDA [1]): failed to affect
- IC50 [2]: 3.7 µM
- IC50 [3]: 5.1 µM
- ED50 (male CFLP mice [5]; mice, p.o.): 12 mg/kg
- ED50 (male CFLP mice [6]; mice, p.o.): 46.8 mg/kg
- ED50 (male CFLP mice [7]): > 200 mg/kg
- ED50 (male CFLP mice [8]; mice, p.o.): 16 mg/kg
- ED50 (male CFLP mice [9]): 45 mg/kg
- ED50 (male CFLP mice [10]; mice, p.o.): 9 mg/kg
- ED50 (CFLP mice; mice, i.p.): 23.5 mg/kg
- ED50 (mice; mice, i.p.): 3.7 mg/kg
- ED50 (cats [11]): 0.36 mg/kg
- ED50 (cats [12]; [15]): > 1.6 mg/kg
- ED50 (cats [12]; [16]): > 1.6 mg/kg
- ED50 (cats [12]; [17]): 0.69 mg/kg
- ED50 (cats [12]; [18]): 0.77 mg/kg
- LD50 (Acute toxicity in mice; ip, read-out: LD50 i.p.): 127 mg/kg
- LD50 (Acute toxicity in mice; po, read-out: LD50 p.o.): 130 mg/kg
